Experimental data as given in US6492365B1, “Microsomal triglyceride transfer protein” (Bristol-Myers Squibb Company, priority 1992, dated 2002).
Where a name gives a salt, the structure may show the parent alone.

Tests used:
bovine MTP [1] = target: T1, bovine MTP (Bos taurus, UniProt P55156); assay: MTP-catalyzed transport of 14C-CE from donor SUV to acceptor SUV; assay type: biochemical
T1 construct: with about 50-200 ng purified MTP in the well of a 96-well plate; from tissue; host or cells: bovine liver
T1 sequence (P55156 12-887): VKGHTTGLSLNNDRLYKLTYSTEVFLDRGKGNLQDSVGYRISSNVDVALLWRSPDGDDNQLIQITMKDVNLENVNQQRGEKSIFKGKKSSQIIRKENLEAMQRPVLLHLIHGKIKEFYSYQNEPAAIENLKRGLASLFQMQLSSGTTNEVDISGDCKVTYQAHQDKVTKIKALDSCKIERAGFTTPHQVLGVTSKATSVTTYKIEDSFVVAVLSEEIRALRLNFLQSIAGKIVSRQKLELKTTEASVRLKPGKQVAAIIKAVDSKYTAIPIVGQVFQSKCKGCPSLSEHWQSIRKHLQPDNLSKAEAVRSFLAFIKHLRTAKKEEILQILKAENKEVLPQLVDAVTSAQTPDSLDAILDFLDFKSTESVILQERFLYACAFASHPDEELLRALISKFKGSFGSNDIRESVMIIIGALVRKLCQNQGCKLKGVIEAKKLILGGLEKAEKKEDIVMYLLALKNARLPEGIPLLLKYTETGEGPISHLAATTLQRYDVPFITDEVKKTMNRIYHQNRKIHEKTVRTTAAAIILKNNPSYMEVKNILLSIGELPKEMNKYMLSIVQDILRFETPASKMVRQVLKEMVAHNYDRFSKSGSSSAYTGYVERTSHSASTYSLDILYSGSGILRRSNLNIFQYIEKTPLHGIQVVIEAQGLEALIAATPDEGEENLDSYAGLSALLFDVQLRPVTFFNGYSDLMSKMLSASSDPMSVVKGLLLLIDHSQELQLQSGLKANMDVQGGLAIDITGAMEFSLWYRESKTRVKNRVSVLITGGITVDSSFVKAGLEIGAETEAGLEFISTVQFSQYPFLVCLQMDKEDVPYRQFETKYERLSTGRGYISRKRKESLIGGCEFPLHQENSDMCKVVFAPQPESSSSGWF
T1 sequence (P05307 21-510 partner): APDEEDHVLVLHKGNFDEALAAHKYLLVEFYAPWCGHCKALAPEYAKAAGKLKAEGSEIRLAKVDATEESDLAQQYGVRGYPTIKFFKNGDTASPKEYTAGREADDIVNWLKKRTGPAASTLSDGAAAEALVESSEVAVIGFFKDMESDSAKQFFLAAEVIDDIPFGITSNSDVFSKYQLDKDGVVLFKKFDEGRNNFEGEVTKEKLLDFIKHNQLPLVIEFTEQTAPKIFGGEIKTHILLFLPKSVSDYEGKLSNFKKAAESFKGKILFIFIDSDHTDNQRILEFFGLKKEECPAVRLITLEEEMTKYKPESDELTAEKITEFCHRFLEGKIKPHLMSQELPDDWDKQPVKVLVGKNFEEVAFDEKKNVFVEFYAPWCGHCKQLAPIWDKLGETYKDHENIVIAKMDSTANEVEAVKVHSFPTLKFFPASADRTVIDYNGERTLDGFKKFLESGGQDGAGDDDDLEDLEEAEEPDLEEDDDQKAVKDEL
Method: (§1) To measure the effect of compound A on bovine MTP-catalyzed transport of CE or PC between membranes, the lipid transfer assay which measures TG transfer between SUV was modified. The composition of the donor vesicles was the same, except 0.25 mol% ^14C-CE or ^14C-PC replaced the labeled TG. The composition of the acceptor vesicles were the same, except labeled PC and unlabeled TG were not included. Following precipitation of donor vesicles, the percentage of lipid transfer was calculated by comparing the ^14C-CE or -PC in the acceptor vesicles in the supernatant following a transfer reaction to the total ^14C-CE or -PC in the assay. The labeled lipid in the supernatant in the absence of MTP was subtracted from the labeled lipid in the presence MTP to calculate the MTP-catalyzed lipid transfer from donor SUV to acceptor SUV. The remainder of the assay was essentially as described previously.

bovine MTP [2] = target: T1, bovine MTP; assay: MTP-catalyzed transport of 14C-PC from donor SUV to acceptor SUV; assay type: biochemical; details: at concentrations of inhibitor which decreased TG and CE transfer more than 80%
Method: as §1

## O=C1c2ccccc2CN1C1CCN(CCC(c2ccccc2)c2ccccc2)CC1 [compound A, 2-[1-(3,3-diphenylpropyl)-4-piperdinyl]-2,3-dihydro-3-oxo-1H-isoindole hydrochloride]
Bovine MTP [1]; at concentrations that inhibited approximately 40% of PC transfer
  decrease of CE transfer: more than 80%
Bovine MTP [1]; result in words
  inhibition of CE transfer: comparable to its inhibition of TG transfer
Bovine MTP [2]
  PC transfer inhibited: Approximately 40%
